In patent US20130273138A1, “TRANSDERMAL FORMULATIONS OF GERANYLGERANYLACETONE” (COYOTE PHARMACEUTICALS, INC., priority 2012, published 2013):

Assay: Dissolution of GGA patch (HPLC refractive index detector)
Type: physicochemical
Conditions: 3.2 cm×3 cm patch, 10 mg GGA; 24 hour time point; acetonitrile as the media
Method: The assembly was then clipped to two pins to sink the membrane-patch assembly to the bottom of the vessel and remains at the fixed position.
Two chromatograms (one standard of 0.05 mg/mL and one sample taken at 24 hour time point) in FIGS. 1A and 1B illustrate the dissolution results. Nearly all GGA in the membrane was released according to this specific dissolution setting (i.e., acetonitrile as the media).

GGA released from patch (dissolution): Nearly all
SMILES: CC(=O)CC/C=C(\C)CC/C=C(\C)CC/C=C(\C)CCC=C(C)C [GGA, Geranylgeranylacetone]
